Activity calls are given as the source filed them. No cut-off for these calls is given here.
Columns and labels:
Heart = assay: Antiarrhythmic activity in rabbit heart assessed as reduction in aconitine-induced ventricular arrhythmia at 40 mg/l after 30 mins by electrocardiographic analysis; format: functional, tissue-based; settings: Oryctolagus cuniculus
Canis familiaris [1] = assay: Antiarrhythmic activity in iv dosed mongrel dog assessed as reduction in ouabain-induced ventricular arrhythmia by electrocardiographic analysis; format: functional; settings: Canis lupus familiaris, Heart; for minimal effective dose: read-out: MED
Canis familiaris [2] = assay: Antiarrhythmic activity in iv dosed mongrel dog assessed as reduction in ouabain-induced ventricular arrhythmia measured as duration of action at MED by electrocardiographic analysis; format: functional, Canis lupus familiaris, Heart
Canis familiaris [3] = species on record: Canis familiaris; assay: Antiarrhythmic activity in mongrel dog Harris two-stage coronary ligation model assessed as reduction in ectopic beats by electrocardiographic analysis; format: functional; settings: Canis lupus familiaris, Heart; for minimal effective dose: read-out: MED
Canis familiaris [4] = species on record: Canis familiaris; assay: Antiarrhythmic activity in mongrel dog Harris two-stage coronary ligation model assessed as reduction in ectopic beats measured as duration of action at MED by electrocardiographic analysis; format: functional, Canis lupus familiaris, Heart
Canis familiaris [5] = species on record: Canis familiaris; assay: Toxicity in mongrel dog Harris two-stage coronary ligation model; format: organism-based, Canis lupus familiaris; settings: in vivo

## Br.C1=C2C(=C(c3ccccc3)c3ccccc32)CN(Cc2ccccc2)C1
Heart
  Activity: Active
Canis familiaris [1]
  minimal effective dose: 15 mg/kg
Canis familiaris [2]
  Time: 17 min
Canis familiaris [3]
  Activity: inactive

## Br.CCN(CC)CCCN1CC=C2C(=C(c3ccccc3)c3ccccc32)C1.O
Heart
  Activity: Active
Canis familiaris [1]
  minimal effective dose: 20 mg/kg
Canis familiaris [2]
  Time: 35 min
Canis familiaris [3]
  minimal effective dose: 15 mg/kg
Canis familiaris [4]
  Time: 10 min

## Br.CCN(CC)CCCN1CC[C@H]2c3ccccc3[C@H](c3ccccc3)[C@H]2C1.O (relative stereo)
Canis familiaris [1]
  minimal effective dose: 15 mg/kg
Canis familiaris [2]
  Time: 19 min

## c1ccc([C@H]2c3ccccc3[C@@H]3CCNC[C@H]23)cc1 (relative stereo)
Heart
  Activity: Active
Canis familiaris [1]
  Activity: inactive

## CCN(CC)CCCN1CCC(O)(c2ccccc2)C(C(=O)c2ccccc2)C1 (stereo not drawn)
Canis familiaris [1]
  minimal effective dose: 12.5 mg/kg
Canis familiaris [2]
  Time: 32 min
Canis familiaris [3]
  minimal effective dose: 7.5 mg/kg
Canis familiaris [4]
  Time: 16 min

## Br.CN(C)CCN1CC[C@H]2c3ccccc3[C@H](c3ccccc3)[C@H]2C1 (relative stereo)
Heart
  Activity: Active
Canis familiaris [1]
  minimal effective dose: 20 mg/kg
Canis familiaris [2]
  Time: 17 min
Canis familiaris [3]
  Activity: inactive

## Cl.O.c1ccc([C@@H]2c3ccccc3[C@@H]3CCN(CCCN4CCCCC4)C[C@H]23)cc1 (relative stereo)
Canis familiaris [1]
  minimal effective dose: 15 mg/kg
Canis familiaris [2]
  Time: 15 min
Canis familiaris [3]
  Activity: inactive

## Br.CN(C)CCCN1CC=C2C(=C(c3ccccc3)c3ccccc32)C1.O
Heart
  Activity: Active
Canis familiaris [1]
  minimal effective dose: 15 mg/kg
Canis familiaris [2]
  Time: 40 min
Canis familiaris [3]
  Activity: inactive

## Br.CCN(CC)CCN1CC[C@H]2c3ccccc3[C@@H](c3ccccc3)[C@H]2C1.O (relative stereo)
Heart
  Activity: Active
Canis familiaris [1]
  minimal effective dose: 10 mg/kg
Canis familiaris [2]
  Time: 25 min
Canis familiaris [3]
  minimal effective dose: 12.5 mg/kg
Canis familiaris [4]
  Time: 12.5 min

## Br.C1=C2C(=C(c3ccccc3)c3ccccc32)CN(CCCN2CCCCC2)C1.O
Heart
  Activity: Active
Canis familiaris [1]
  minimal effective dose: 10 mg/kg
Canis familiaris [2]
  Time: 35 min
Canis familiaris [3]
  minimal effective dose: 7.5 mg/kg
Canis familiaris [4]
  Time: 12 min

## CN(C)CCCN1CCC(O)(c2ccccc2)C(C(=O)c2ccccc2)C1 (stereo not drawn)
Heart
  Activity: Active
Canis familiaris [1]
  Activity: inactive

## CN(C)CCCN1CC[C@H]2c3ccccc3[C@@H](c3ccccc3)[C@H]2C1.Cl.O (relative stereo)
Heart
  Activity: Active
Canis familiaris [1]
  minimal effective dose: 10 mg/kg
Canis familiaris [2]
  Time: 15 min
Canis familiaris [3]
  minimal effective dose: 10 mg/kg
Canis familiaris [4]
  Time: 17.5 min

## Cl.O.c1ccc([C@H]2c3ccccc3[C@@H]3CCN(CCCN4CCCCC4)C[C@H]23)cc1 (relative stereo)
Heart
  Activity: Active
Canis familiaris [1]
  minimal effective dose: 10 mg/kg
Canis familiaris [2]
  Time: 30 min
Canis familiaris [5]
  Activity: Toxic

## CN(C)CCN1CCC(O)(c2ccccc2)C(C(=O)c2ccccc2)C1 (stereo not drawn)
Heart
  Activity: Active
Canis familiaris [1]
  Activity: inactive

## Br.c1ccc([C@@H]2c3ccccc3[C@@H]3CCNC[C@H]23)cc1 (relative stereo)
Heart
  Activity: Active
Canis familiaris [1]
  minimal effective dose: 17.5 mg/kg
Canis familiaris [2]
  Time: 15 min
Canis familiaris [3]
  minimal effective dose: 15 mg/kg
Canis familiaris [4]
  Time: 12.5 min

## CN(C)CCCN1CC[C@H]2c3ccccc3[C@H](c3ccccc3)[C@H]2C1 (relative stereo)
Heart
  Activity: Active
Canis familiaris [1]
  Activity: inactive

## CCN(CC)CCN1CC[C@H]2c3ccccc3[C@H](c3ccccc3)[C@H]2C1 (relative stereo)
Heart
  Activity: Active
Canis familiaris [1]
  Activity: inactive

## CCN(CC)CCCN1CC[C@H]2c3ccccc3[C@@H](c3ccccc3)[C@H]2C1.Cl.O (relative stereo)
Heart
  Activity: Active
Canis familiaris [1]
  minimal effective dose: 20 mg/kg
Canis familiaris [2]
  Time: 15 min
Canis familiaris [3]
  minimal effective dose: 12.5 mg/kg
Canis familiaris [4]
  Time: 10 min

## O=C(c1ccccc1)C1CN(CCCN2CCCCC2)CCC1(O)c1ccccc1 (stereo not drawn)
Heart
  Activity: Active
Canis familiaris [1]
  minimal effective dose: 10 mg/kg
Canis familiaris [2]
  Time: 15 min
Canis familiaris [3]
  Activity: inactive

## CC(C)N(CCC(C(N)=O)(c1ccccc1)c1ccccn1)C(C)C.O=P(O)(O)O (stereo not drawn) [DISOPYRAMIDE PHOSPHATE]
Canis familiaris [1]
  minimal effective dose: 6.6 mg/kg
Canis familiaris [2]
  Time: >30 min
Canis familiaris [3]
  minimal effective dose: 7 mg/kg
Canis familiaris [4]
  Time: 23 min

## C=C[C@H]1CN2CC[C@H]1C[C@@H]2[C@@H](O)c1ccnc2ccc(OC)cc12 [QUINIDINE]
Heart
  Activity: Active
Canis familiaris [1]
  minimal effective dose: 7.5 mg/kg
Canis familiaris [2]
  Time: >30 min
Canis familiaris [3]
  minimal effective dose: 12.8 mg/kg
Canis familiaris [4]
  Time: 23 min
